Test results as given in patent US9169254B2, “Spiroimidazolone derivative” (Chugai Seiyaku Kabushiki Kaisha, priority 2009, dated 2015).

Biological target: T1, human PTH1 receptor (Homo sapiens, UniProt Q03431)
T1 sequence (Q03431 27-593): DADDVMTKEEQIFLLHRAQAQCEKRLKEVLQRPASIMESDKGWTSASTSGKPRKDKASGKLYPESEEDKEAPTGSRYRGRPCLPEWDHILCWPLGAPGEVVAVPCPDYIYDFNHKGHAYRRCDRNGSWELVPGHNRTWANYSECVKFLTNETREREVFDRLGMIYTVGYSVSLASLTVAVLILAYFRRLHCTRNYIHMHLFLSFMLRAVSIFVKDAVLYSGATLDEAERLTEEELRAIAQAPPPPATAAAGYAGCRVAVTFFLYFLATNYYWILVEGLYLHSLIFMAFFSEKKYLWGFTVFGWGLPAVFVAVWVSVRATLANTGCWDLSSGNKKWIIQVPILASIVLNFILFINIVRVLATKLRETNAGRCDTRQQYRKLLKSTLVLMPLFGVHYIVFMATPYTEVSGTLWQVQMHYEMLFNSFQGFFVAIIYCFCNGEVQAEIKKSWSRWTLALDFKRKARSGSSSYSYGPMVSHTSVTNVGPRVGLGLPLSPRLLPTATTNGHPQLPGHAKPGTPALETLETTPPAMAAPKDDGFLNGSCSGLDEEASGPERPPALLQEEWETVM
Test: In vitro cAMP signal activity in HKRK-B7 cells (LLC-PK1 cells overexpressing the human PTH1 receptor)
Assay type: cell-based
Conditions: HKRK-B7 cells; compound at 1×10^−3 M; cAMP produced as percentage of that produced by hPTH(1-34) at 100 nM

cAMP production activity (%)	SMILES
41	Cc1cc(CNC(=O)OC(C)(C)C)ccc1CCS(=O)(=O)N1CCC2(CC1)N=C(C1CCC(F)(F)CC1)NC2=O [Compound 163, (4-{2-[2-(4,4-difluoro-cyclohexyl)-4-oxo-1,3,8-triaza-spiro[4.5]dec-1-ene-8-sulfonyl]-ethyl}-3-methyl-benzyl)-carbamic acid tert-butyl ester]
45	Cc1cc(CNC(=O)OC(C)(C)C)ccc1CCS(=O)(=O)N1CCC2(CC1)N=C(c1ccc(F)c(C(F)(F)F)c1)NC2=O [Compound 164, (4-{2-[2-(4-fluoro-3-trifluoromethyl-phenyl)-4-oxo-1,3,8-triaza-spiro[4.5]dec-1-ene-8-sulfonyl]-ethyl}-3-methyl-benzyl)-carbamic acid tert-butyl ester]
69	Cc1cc(C(=O)N(C)C)ccc1CCS(=O)(=O)N1CCC2(CC1)N=C(c1cccc(COCC(F)(F)F)c1)NC2=O [Compound 168, 3,N,N-Trimethyl-4-(2-{4-oxo-2-[3-(2,2,2-trifluoro-ethoxymethyl)-phenyl]-1,3,8-triaza-spiro[4.5]dec-1-ene-8-sulfonyl}-ethyl)-benzamide]
71	Cc1cc(C(=O)N(C)C)ccc1CCS(=O)(=O)N1CCC2(CC1)N=C(c1cccc(COCC(F)F)c1)NC2=O [Compound 169, 4-(2-{2-[3-(2,2-difluoro-ethoxymethyl)-phenyl]-4-oxo-1,3,8-triaza-spiro[4.5]dec-1-ene-8-sulfonyl}-ethyl)-3,N,N-trimethyl-benzamide]
77	Cc1cc(C(=O)N(C)C)ccc1CCS(=O)(=O)N1CCC2(CC1)N=C(c1cccc(COCC(F)(F)C(F)F)c1)NC2=O [Compound 170, 3,N,N-trimethyl-4-(2-{4-oxo-2-[3-(2,2,3,3-tetrafluoro-propoxymethyl)-phenyl]-1,3,8-triaza-spiro[4.5]dec-1-ene-8-sulfonyl}-ethyl)-benzamide]
36	Cc1cc(C(=O)N(C)C)ccc1CCS(=O)(=O)N1CCC2(CC1)N=C(c1cccc(-c3c(C)noc3C)c1)NC2=O [Compound 171, 4-(2-{2-[3-(3,5-Dimethyl-isoxazol-4-yl)-phenyl]-4-oxo-1,3,8-triaza-spiro[4.5]dec-1-ene-8-sulfonyl}-ethyl)-3,N,N-trimethyl-benzamide]
102	Cc1cc(C(=O)N(C)C)ccc1CCS(=O)(=O)N1CCC2(CC1)N=C(c1cccc(-c3ccccc3)c1)NC2=O [Compound 172, 4-[2-(2-biphenyl-3-yl-4-oxo-1,3,8-triaza-spiro[4.5]dec-1-ene-8-sulfonyl)-ethyl]-3,N,N-trimethyl-benzamide]
71	Cc1cc(C(=O)N(C)C)ccc1CCS(=O)(=O)N1CCC2(CC1)N=C(c1cccc(-c3cccnc3)c1)NC2=O [Compound 173, 3,N,N-trimethyl-4-{2-[4-oxo-2-(3-pyridin-3-yl-phenyl)-1,3,8-triaza-spiro[4.5]dec-1-ene-8-sulfonyl]-ethyl}-benzamide]
68	COC(=O)c1cccc(C2=NC3(CCN(S(=O)(=O)CCc4ccc(C(=O)N(C)C)cc4C)CC3)C(=O)N2)c1 [Compound 174, 3-{8-[2-(4-Dimethylcarbamoyl-2-methyl-phenyl)-ethanesulfonyl]-4-oxo-1,3,8-triaza-spiro[4.5]dec-1-en-2-yl}-benzoic acid methyl ester]
73	Cc1cc(C(=O)N(C)C)ccc1CCS(=O)(=O)N1CCC2(CC1)N=C(C(C)(C)Oc1ccc(Cl)cc1Cl)NC2=O [Compound 175, 4-(2-{2-[1-(2,4-Dichloro-phenoxy)-1-methyl-ethyl]-4-oxo-1,3,8-triaza-spiro[4.5]dec-1-ene-8-sulfonyl}-ethyl)-3,N,N-trimethyl-benzamide]
74	Cc1cc(C(=O)N(C)C)ccc1CCS(=O)(=O)N1CCC2(CC1)N=C(COc1ccc(F)c(F)c1F)NC2=O [Compound 176, 3,N,N-trimethyl-4-{2-[4-oxo-2-(2,3,4-trifluoro-phenoxymethyl)-1,3,8-triaza-spiro[4.5]dec-1-ene-8-sulfonyl]-ethyl}-benzamide]

Further lines, the molecule ahead of its results:

SMILES	cAMP production activity (%)
Cc1cc(CNC(=O)OC(C)(C)C)ccc1CCS(=O)(=O)N1CCC2(CC1)N=C(C1CCOCC1)NC2=O [Compound 165, (3-methyl-4-{2-[4-oxo-2-(tetrahydro-pyran-4-yl)-1,3,8-triaza-spiro[4.5]dec-1-ene-8-sulfonyl]-ethyl}-benzyl)-carbamic acid tert-butyl ester]	37
Nc1cccc(CCS(=O)(=O)N2CCC3(CC2)N=C(C2CCCCC2)NC3=O)c1 [Compound 166, 8-[2-(3-Amino-phenyl)-ethanesulfonyl]-2-cyclohexyl-1,3,8-triaza-spiro[4.5]dec-1-en-4-one]	56
CC(=O)Nc1ccc(CCS(=O)(=O)N2CCC3(CC2)N=C(C2CCCCC2)NC3=O)cc1 [Compound 167, N-{4-[2-(2-Cyclohexyl-4-oxo-1,3,8-triaza-spiro[4.5]dec-1-ene-8-sulfonyl)-ethyl]-phenyl}-acetamide]	44
CCc1cccc(NS(=O)(=O)N2CCC3(CC2)N=C(C2CCCCC2)NC3=O)c1 [Compound 177, 2-Cyclohexyl-4-oxo-1,3,8-triaza-spiro[4.5]dec-1-ene-8-sulfonic (3-ethylphenyl)amide]	28
O=C1NC(C2CCCCC2)=NC12CCN(S(=O)(=O)/C=C/c1ccc3[nH]ccc3c1)CC2 [Compound 178, 2-Cyclohexyl-8-[(E)-2-(1H-indol-5-yl)-ethenesulfonyl]-1,3,8-triaza-spiro[4.5]dec-1-en-4-one]	29
O=C1NC(C2CCCCC2)=NC12CCN(S(=O)(=O)/C=C/c1ccccc1C(F)(F)F)CC2 [Compound 179, 2-cyclohexyl-8-[(E)-2-(2-trifluoromethyl-phenyl)-ethenesulfonyl]-1,3,8-triaza-spiro[4.5]dec-1-en-4-one]	49
COc1cccc(/C=C/S(=O)(=O)N2CCC3(CC2)N=C(C2CCCCC2)NC3=O)c1 [Compound 180, 2-cyclohexyl-8-[(E)-2-(3-methoxy-phenyl)-ethenesulfonyl]-1,3,8-triaza-spiro[4.5]dec-1-en-4-one]	60
COc1ccccc1/C=C/S(=O)(=O)N1CCC2(CC1)N=C(C1CCCCC1)NC2=O [Compound 181, 2-cyclohexyl-8-[(E)-2-(2-methoxy-phenyl)-ethenesulfonyl]-1,3,8-triaza-spiro[4.5]dec-1-en-4-one]	19
O=C1NC(C2CCCCC2)=NC12CCN(S(=O)(=O)/C=C/c1cccc3[nH]ccc13)CC2 [Compound 182, 2-cyclohexyl-8-[(E)-2-(1H-indol-4-yl)-ethenesulfonyl]-1,3,8-triaza-spiro[4.5]dec-1-en-4-one]	38
O=C1NC(C2CCCCC2)=NC12CCN(S(=O)(=O)/C=C/c1c(F)cccc1C(F)(F)F)CC2 [Compound 183, 2-cyclohexyl-8-[(E)-2-(2-fluoro-6-trifluoromethyl-phenyl)-ethenesulfonyl]-1,3,8-triaza-spiro[4.5]dec-1-en-4-one]	68
O=C1NC(C2CCCCC2)=NC12CCN(S(=O)(=O)/C=C/c1cccc(F)c1F)CC2 [Compound 184, 2-cyclohexyl-8-[(E)-2-(2,3-difluoro-phenyl)-ethenesulfonyl]-1,3,8-triaza-spiro[4.5]dec-1-en-4-one]	37
O=C1NC(C2CCCCC2)=NC12CCN(S(=O)(=O)/C=C/c1cccc(F)c1C(F)(F)F)CC2 [Compound 185, 2-cyclohexyl-8-[(E)-2-(3-fluoro-2-trifluoromethyl-phenyl)-ethenesulfonyl]-1,3,8-triaza-spiro[4.5]dec-1-en-4-one]	33
Cc1ccccc1/C=C/S(=O)(=O)N1CCC2(CC1)N=C(C1CCCCC1)NC2=O [Compound 186, 2-cyclohexyl-8-((E)-2-o-tolyl-ethenesulfonyl)-1,3,8-triaza-spiro[4.5]dec-1-en-4-one]	51
O=C1NC(C2CCCCC2)=NC12CCN(S(=O)(=O)/C=C/c1ccc(CCO)cc1)CC2 [Compound 187, 2-cyclohexyl-8-{(E)-2-[4-(2-hydroxy-ethyl)-phenyl]-ethenesulfonyl}-1,3,8-triaza-spiro[4.5]dec-1-en-4-one]	12
O=C1NC(C2CCCCC2)=NC12CCN(S(=O)(=O)/C=C/c1cccc3[nH]c(=O)oc13)CC2 [Compound 188, 2-cyclohexyl-8-[(E)-2-(2-oxo-2,3-dihydro-benzoxazol-7-yl)-ethenesulfonyl]-1,3,8-triaza-spiro[4.5]dec-1-en-4-one]	70
CN(C)C(=O)n1ccc2c(/C=C/S(=O)(=O)N3CCC4(CC3)N=C(C3CCCCC3)NC4=O)cccc21 [Compound 189, 4-[(E)-2-(2-cyclohexyl-4-oxo-1,3,8-triaza-spiro[4.5]dec-1-ene-8-sulfonyl)-vinyl]-indole-1-carboxylic acid dimethylamide]	54
CC(=O)Nc1cccc(C)c1/C=C/S(=O)(=O)N1CCC2(CC1)N=C(C1CCCCC1)NC2=O [Compound 190, N-{2-[(E)-2-(2-cyclohexyl-4-oxo-1,3,8-triaza-spiro[4.5]dec-1-ene-8-sulfonyl)-vinyl]-3-methyl-phenyl}-acetamide]	61
